Measured values: publication PMC3235552, “Fragment library screening reveals remarkable similarities between the G protein-coupled receptor histamine H4 and the ion channel serotonin 5-HT3A” (Bioorganic & Medicinal Chemistry Letters, 2011)
Marks after values point to notes of the source that are not given here.

Experiments:
[1] = molecular target: T1, human 5-HT3AR (Homo sapiens, UniProt P46098); assay: 5-HT3AR radioligand displacement of [3H]granisetron, HEK293 membranes; type: binding; details: for Affinity (pKi) 5-HT3AR: displacement of [3H]granisetron, membranes of HEK293 cells expressing human 5-HT3AR, mean ± SEM, at least two measurements, n.a. = non active
T1 construct: transfected with the human 5-HT3A subunit (PDB ID: P46098) in pcDNA3.1; expressed in transfected cells; cDNA in pcDNA3.1
T1 sequence (P46098 24-478): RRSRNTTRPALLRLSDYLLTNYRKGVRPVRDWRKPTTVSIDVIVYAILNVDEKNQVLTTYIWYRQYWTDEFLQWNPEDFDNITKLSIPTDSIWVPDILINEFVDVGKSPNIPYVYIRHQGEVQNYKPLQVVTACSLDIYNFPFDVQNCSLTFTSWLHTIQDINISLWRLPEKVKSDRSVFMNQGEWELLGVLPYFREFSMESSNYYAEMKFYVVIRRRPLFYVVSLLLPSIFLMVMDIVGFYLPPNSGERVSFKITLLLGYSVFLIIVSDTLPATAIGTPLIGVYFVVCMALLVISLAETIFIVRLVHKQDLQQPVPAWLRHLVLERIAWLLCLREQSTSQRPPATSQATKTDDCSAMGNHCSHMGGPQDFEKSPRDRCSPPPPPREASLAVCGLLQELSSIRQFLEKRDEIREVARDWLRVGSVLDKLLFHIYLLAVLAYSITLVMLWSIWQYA
Method: For the 5-HT3AR we performed a high throughput functional fragment screen[18] using a fluorescent readout (Flex Station) applying a fluorescent membrane potential dye. […] From this fragment screening we identified 70 hits for the 5-HT3A receptor (hit rate: 7%). Fragments were screened at a concentration of 100 μM using stably expressed human 5-HT3AR in HEK293 cells. Binding affinities of hits were determined using radioligand binding studies measuring [^3H]granisetron binding using membranes of HEK293 cells expressing the human 5-HT3AR.[18]
5-HT3AR were expressed in HEK293 cells transfected with the human 5-HT3A subunit ([…]: P46098) in pcDNA3.1 (Invitrogen Ltd., Paisley, UK). Stably expressing cells were clonally selected with the addition of the G-418 (Sigma Aldrich Company ltd., Dorset, UK). Cells were routinely grown in 90 mm culture dishes containing Dubelco’s Modified Eagle’s Medium DMEM / Glutamax (Gibco, Invitrogen Ltd.) and passaged when 90% confluency was reached.
[picture] For radioligand binding HEK293 cells at 90% confluency were scraped into 1 ml of ice-cold HEPES buffer (10 mM, pH 7.4) and frozen. After thawing, they were washed with HEPES buffer and homogenised using a fine-bore syringe. 50 µl of cell membranes were incubated in 0.5 ml HEPES buffer containing 0.7 nM [^3H]granisetron (~ Kd) and differing concentrations of the test compound. Competition binding (8 point) was performed on at least three separate plates of transfected cells. Non-specific binding was determined using 1 mM quipazine. Reactions were incubated for at least 24 h at 4°C, to allow compounds with slow kinetics to equilibrate. Incubations were terminated by vacuum filtration using a Brandel cell harvester (Alpha Biotech Ltd., London, UK) onto GF/B filters pre-soaked in 0.3 % polyethyleneimine. Radioactivity was determined by scintillation counting using a Beckman BCLS6500 (Fullerton, California, USA). Data were fit according to the equation:
where L is the concentration of ligand present; BL is the binding in the presence of ligand concentration L; Bmin is the binding when L = 0; Bmax is the binding when L=∞, L50 is the concentration of L which gives a binding equal to (Bmax + Bmin)/2; and nH is the Hill coefficient. Ki values were estimated from IC50 values using the Cheng-Prusoff equation^5
where Ki is the equilibrium dissociation constant for binding of the unlabeled antagonist, IC50 is the concentration of antagonist that blocks half the specific binding, [L] is the free concentration of radioligand and Kd is the equilibrium dissociation constant of the radioligand.

[2] = molecular target: T2, human H4R (Homo sapiens, UniProt Q9H3N8); assay: H4R radioligand displacement of [3H]histamine, HEK293 membranes; type: binding; parameters: expressed in transfected cells; host or cells: HEK293T (main text: HEK293), transient transfection with polyethyleneimine; details: for Affinity (pKi) H4R: displacement of [3H]histamine, membranes of HEK293 cells transiently expressing human H4R, mean ± SEM, at least three measurements, n.a. = non active
Method: For the H4R fragment screen a radioligand displacement study was performed at a 10 μM fragment concentration. Hits were assigned when the fragment displaced 50% or more of the radioligand, resulting in 56 hits (hit rate: 6%). Radioligand binding was measured by displacement of [^3H]histamine using membranes of HEK293 cells transiently expressing the human H4R.[17] For the hit compounds, affinities were determined by subsequent radioligand displacement studies.
The H4R radioligand displacement screen was performed on homogenized HEK293T cells transiently expressing the human H4R. To this end, cells were transfected with 1.25 µg H4R plasmid per million cells using the 25-kDa linear polyethyleneimine. Two days after transfection, cells were collected, washed in PBS, and stored as pellets at -20 °C. Pellets were dissolved in binding buffer and homogenized using a teflon/glass followed by sonification for 3s. Cell homogenates were incubated in 96 well plates with 10µM (final) fragment and 10nM [^3H]-histamine (13.4 Ci/mmol, Perkin Elmer) and for 1.5 hours at room temperature on a table shaker (750rpm). Incubations were terminated by rapid filtration through polyethyleneimene-coated GF/C (Perkin Elmer) filter plates. Bound radioactivity was quantified in a Wallac microbeta counter (Perkin Elmer).

[3] = molecular target: H4R; parameters: method as in PMID 18983139, PMID 19413570; details: Abbott H4R ligands; cited from earlier work
[4] = molecular target: T2, human H4R; assay: H4R radioligand binding, membranes of SK-N-MC cells; parameters: expressed in transfected cells; details: membranes of SK-N-MC cells transiently expressing human H4R; mean ± SEM, at least three measurements

T2 sequence (Q9H3N8 whole entry, the tested form may be a part): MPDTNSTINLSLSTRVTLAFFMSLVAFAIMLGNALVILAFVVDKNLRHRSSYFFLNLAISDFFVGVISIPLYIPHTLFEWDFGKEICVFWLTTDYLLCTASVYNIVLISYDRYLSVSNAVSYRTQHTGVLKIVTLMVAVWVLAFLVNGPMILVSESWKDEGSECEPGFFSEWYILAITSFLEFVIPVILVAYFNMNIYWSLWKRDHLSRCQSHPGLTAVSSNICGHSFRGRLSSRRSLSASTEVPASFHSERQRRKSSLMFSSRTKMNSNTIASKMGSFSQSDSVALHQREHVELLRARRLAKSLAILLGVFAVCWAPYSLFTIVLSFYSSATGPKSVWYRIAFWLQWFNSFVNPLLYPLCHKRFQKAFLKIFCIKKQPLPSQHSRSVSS

Structure (SMILES)	Affinity (pKi) 5-HT3AR [1]	Affinity (pKi) H4R [2]	other results
Clc1ccc(C2CCNC2)cc1 (stereo not shown) [compound 4]	6.1 ± 0.2	–	–
CN1CCN(c2ccc3cc(Cl)ccc3n2)CC1 [compound 7]	6.6 ± 0.3	6.2 ± 0.0	affinities for 5-HT3R and H4R compared ([1]; from affinities of Table 1): comparable affinities
Nc1nc2c(c(N3CCNCC3)n1)CCCc1ccccc1-2 [compound 13]	–	–	H4R pKi [3]: 7.1
N=C(N)NCCCc1ccccc1 [compound 6]	6.1 ± 0.1	–	–
c1cncc(Cc2c[nH]cn2)c1 [compound 1]	–	7.0 ± 0.1	–
CN1CCC(=Cc2nc3cc(Cl)ccc3[nH]2)CC1 [compound 9]	8.8 ± 0.1	–	selectivity for 5-HT3R over H4R ([1]; from affinities of Table 1): 500 fold; Affinity (pKi) H4R [4]: 6.1 ± 0.1 ^b
CN1CCN(c2cc(-c3ccccc3)nc(N)n2)CC1 [compound 10]	5.9 ± 0.1	8.2 ± 0.1	selectivity for H4R over 5-HT3R ([2]; from affinities of Table 1): 200 fold
CN1CCN(c2cc(-c3ccccc3)ncn2)CC1 [compound 3]	–	6.7 ± 0.0	–
CN1CCN(c2nc3ccccc3nc2O)CC1 [compound 8]	7.9 ± 0.3	7.2 ± 0.0	affinities for 5-HT3R and H4R compared ([1]; from affinities of Table 1): comparable affinities
Nc1ccc2cc3ccccc3nc2c1 [compound 5]	6.0 ± 0.0	–	–
c1nc(CC2CCCCC2)c[nH]1 [compound 11]	5.9 ± 0.3	–	affinities for 5-HT3R and H4R compared ([1]; from affinities of Table 1): comparable affinities; Affinity (pKi) H4R [4]: 6.2 ± 0.1 ^b
c1ccc(CNCCc2c[nH]cn2)cc1 [compound 2]	–	6.2 ± 0.1	–
